Data taken from ChEMBL document CHEMBL3244262, “A Fujita--Ban structure--activity analysis of 44 steroids” (1978).

These compounds were tested on Rattus norvegicus (assay: Glucocorticoid activity in sc dosed bilaterally adrenalectomized rat assessed as glycogen deposition in liver administered for 5 days relative to cortisol).
Type: functional
For `CC(=O)[C@@]1(O)CC[C@H]2[C@@H]3C[C@H](C)C4=CC(=O)CC[C@]4(C)[C@H]3[C@@H](O)C[C@@]21C`, the “log(activity)” value was 0.36.
`C[C@]12CC(=O)[C@H]3[C@@H](CCC4=CC(=O)CC[C@@]43C)[C@@H]1CC[C@@H]2C(=O)CO` was tested, and the “log(activity)” value was -0.31.
`C[C@H]1C[C@H]2[C@@H]3CC[C@](O)(C(=O)CO)[C@@]3(C)C[C@H](O)[C@]2(F)[C@@]2(C)C=CC(=O)C=C12` was tested, and the “log(activity)” value was 1.15.
With `CC(=O)[C@@]1(O)[C@H](O)C[C@H]2[C@@H]3CCC4=CC(=O)C=C[C@]4(C)[C@@]3(F)[C@@H](O)C[C@@]21C` the “log(activity)” value was 0.93.
In the case of `C[C@@H]1C[C@@]2(C)C(=CC1=O)CC[C@@H]1[C@@H]2[C@@H](O)C[C@@]2(C)[C@H]1CC[C@]2(O)C(=O)CO`, the “log(activity)” value is reported as 0.64.
`C[C@]12CCC(=O)C=C1CC[C@H]1[C@@H]3C[C@@H](O)[C@](O)(C(=O)CO)[C@@]3(C)C[C@H](O)[C@@]12F` was tested, and the “log(activity)” value was 0.53.
For `CC(=O)[C@H]1CC[C@H]2[C@@H]3C[C@H](C)C4=CC(=O)CC[C@]4(C)[C@@]3(F)[C@@H](O)C[C@]12C`, the “log(activity)” value was 0.34.
In the case of `C[C@H]1C[C@@H]2[C@H]([C@@H](O)C[C@@]3(C)[C@H]2CC[C@]3(O)C(=O)CF)[C@@]2(C)CCC(=O)C=C12`, the “log(activity)” value is reported as 0.29.
In the case of `C[C@H]1C[C@@H]2[C@H]([C@@H](O)C[C@@]3(C)[C@H]2CC[C@]3(O)C(=O)CF)[C@@]2(C)C=CC(=O)C=C12`, the “log(activity)” value is reported as 0.2.
For `C[C@H]1C[C@@H]2[C@H]([C@@H](O)C[C@@]3(C)[C@H]2CC[C@]3(O)C(=O)CO)[C@@]2(C)CCC(=O)C=C12`, the “log(activity)” value was 0.2.
With `CC(=O)[C@H]1CC[C@H]2[C@@H]3C[C@H](C)C4=CC(=O)CC[C@]4(C)[C@H]3C(=O)C[C@]12C` the “log(activity)” value was 0.12.
In the case of `C[C@]12C=CC(=O)C=C1C=C[C@@H]1[C@@H]2[C@@H](O)C[C@@]2(C)[C@H]1CC[C@]2(O)C(=O)CO`, the “log(activity)” value is reported as 0.08.
With `CC(=O)[C@H]1CC[C@H]2[C@@H]3C[C@H](F)C4=CC(=O)CC[C@]4(C)[C@@]3(F)[C@@H](O)C[C@]12C` the “log(activity)” value was 0.06.
`CC(=O)[C@H]1CC[C@H]2[C@@H]3CCC4=CC(=O)[C@H](C)C[C@]4(C)[C@@]3(F)C(=O)C[C@]12C` was tested, and the “log(activity)” value was -0.01.
`CC(=O)OCC(=O)[C@@]1(O)CC[C@H]2[C@@H]3C[C@H](C)C4=CC(=O)CC[C@]4(C)[C@H]3C(=O)C[C@@]21C` was tested, and the “log(activity)” value was -0.1.
With `CC(=O)[C@@]1(O)CC[C@H]2[C@@H]3CCC4=CC(=O)[C@H](C)C[C@]4(C)[C@@]3(F)[C@@H](O)C[C@@]21C` the “log(activity)” value was -0.11.
With `CC(=O)[C@H]1[C@H](C)C[C@H]2[C@@H]3CCC4=CC(=O)CC[C@]4(C)[C@@]3(F)C(=O)C[C@@]21C` the “log(activity)” value was -0.11.
`C[C@]12CCC(=O)C=C1C=C[C@@H]1[C@@H]2[C@@H](O)C[C@@]2(C)[C@H]1CC[C@]2(O)C(=O)CO` was tested, and the “log(activity)” value was -0.15.
In the case of `CC(=O)[C@H]1CC[C@H]2[C@@H]3CCC4=CC(=O)[C@H](C)C[C@]4(C)[C@@]3(F)[C@@H](O)C[C@]12C`, the “log(activity)” value is reported as -0.28.
With `C[C@@H]1C[C@H]2[C@@H]3C[C@H](F)C4=CC(=O)CC[C@]4(C)[C@H]3CC[C@]2(C)[C@@]1(O)C(=O)CO` the “log(activity)” value was -0.6.
`CC(=O)C1(C(C)=O)CC[C@H]2[C@@H]3CCC4=CC(=O)CC[C@]4(C)[C@@]3(F)[C@@H](O)C[C@@]21C` was tested, and the “log(activity)” value was -0.7.
`CC(=O)[C@H]1CC[C@H]2[C@@H]3C[C@H](F)C4=CC(=O)CC[C@]4(C)[C@H]3C(=O)C[C@]12C` was tested, and the “log(activity)” value was -1.15.
`CC(=O)[C@H]1CC[C@H]2[C@@H]3CCC4=CC(=O)CC[C@]4(C)[C@@]3(F)[C@@H](O)C[C@]12C` was tested, and the “log(activity)” value was -1.3.
`CC(=O)[C@H]1[C@H](O)C[C@H]2[C@@H]3CCC4=CC(=O)CC[C@]4(C)[C@@]3(F)[C@@H](O)C[C@@]21C` was tested, and the “log(activity)” value was -1.3.
`C[C@]12C[C@H](O)[C@H]3[C@@H](CCC4=CC(=O)CC[C@@]43C)[C@@H]1CC[C@@H]2C(=O)CO` [CORTICOSTERONE] was tested, and the “log(activity)” value was -0.55.
In the case of `C[C@]12CCC(=O)C=C1CC[C@@H]1[C@@H]2C(=O)C[C@@]2(C)[C@H]1CC[C@]2(O)C(=O)CO` [CORTISONE], the “log(activity)” value is reported as -0.46.
For `C[C@]12CCC(=O)C=C1CC[C@H]1[C@@H]3CC[C@](O)(C(=O)CO)[C@@]3(C)C[C@H](O)[C@@]12F` [FLUDROCORTISONE], the “log(activity)” value was 0.9.
For `C[C@]12CCC(=O)C=C1CC[C@@H]1[C@@H]2[C@@H](O)C[C@@]2(C)[C@H]1CC[C@]2(O)C(=O)CO` [HYDROCORTISONE], the “log(activity)” value was 0.
For `C[C@]12C=CC(=O)C=C1CC[C@@H]1[C@@H]2[C@@H](O)C[C@@]2(C)[C@H]1CC[C@]2(O)C(=O)CO` [PREDNISOLONE], the “log(activity)” value was 0.43.
In the case of `C[C@]12C=CC(=O)C=C1CC[C@@H]1[C@@H]2C(=O)C[C@@]2(C)[C@H]1CC[C@]2(O)C(=O)CO` [PREDNISONE], the “log(activity)” value is reported as 0.32.
`C[C@]12C=CC(=O)C=C1CC[C@H]1[C@@H]3C[C@@H](O)[C@](O)(C(=O)CO)[C@@]3(C)C[C@H](O)[C@@]12F` [TRIAMCINOLONE] was tested, and the “log(activity)” value was 1.03.
